Data taken from US10227331B2 (priority 2015, dated 2019).

Legend:
NDM-1 = NDM-1 (Klebsiella pneumoniae, UniProt C7C422); assay: biochemical; format: biochemical; settings: CCF2-FA substrate, 2 hours at 25° C; read-out: NDM-1 IC50
Summary of the method: (§1)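 Class B activity is measured in the presence of compound by fluorescence with CCF2-FA after a 2-hour incubation at 25° C. IC50 is taken from a 4-parameter fit of semi-logarithmic dose-response data.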

IMP-1 = IMP-1 (Serratia marcescens, UniProt P52699); assay: biochemical; format: biochemical; settings: CCF2-FA substrate, 2 hours at 25° C; read-out: IMP-1 IC50
IMP-1, sequence (P52699 whole entry, looked up, species assumed): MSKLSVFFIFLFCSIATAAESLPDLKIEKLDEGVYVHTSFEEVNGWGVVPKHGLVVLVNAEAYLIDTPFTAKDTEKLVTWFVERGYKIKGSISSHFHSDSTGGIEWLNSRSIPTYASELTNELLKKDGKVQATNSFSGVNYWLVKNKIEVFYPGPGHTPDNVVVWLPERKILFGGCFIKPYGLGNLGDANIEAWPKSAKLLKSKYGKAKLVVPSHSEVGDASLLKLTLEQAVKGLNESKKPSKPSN
Summary of the method: as §1

VIM-1 = VIM-1 (Pseudomonas aeruginosa (strain ATCC 15692 / DSM 22644 / CIP 104116 / JCM 14847 / LMG 12228 / 1C / PRS 101 / PAO1), UniProt A0A0F7KYQ8); assay: biochemical; settings: CCF2-FA substrate, 2 hours at 25° C
Summary of the method: as §1

[1] = tested on: P. aeruginosa expressing IMP-1, efflux+ (MB9798); format: cell-based, Pseudomonas aeruginosa; settings: for P. aeruginosa expressing IMP-1, efflux+ (MB9798) MITC95: imipenem at 2 μg/mL, in the presence of a class A, C, D serine β-lactamase inhibitor closely related to relebactam; for Efflux ratio: ratio MITC95 PA_9798/MITC95 PA_9799
Excerpt: (§2) The strain background is Pseudomonas aeruginosa PAO1.

[2] = tested on: P. aeruginosa expressing IMP-1, efflux− (MB9799); assay: Efflux: concentration of MBL inhibitor which restores susceptibility to imipenem; format: cell-based, Pseudomonas aeruginosa; settings: imipenem at 2 μg/mL, in the presence of a class A, C, D serine β-lactamase inhibitor closely related to relebactam
Excerpt: as §2

[3] = tested on: Serratia marcescens expressing IMP-1 (CL5741); format: cell-based; settings: with imipenem 1 μg/ml; 95% inhibition of bacterial growth
Summary of the method: (§3)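 Clinical strains grown overnight on blood agar, then diluted 1:100 in 1.1× CAMHB and exposed to test compound with imipenem at 1 μg/ml. Incubation was 22–24 h at 35° C; growth was read by absorbance to find the compound concentration restoring imipenem susceptibility.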

[4] = tested on: Escherichia coli expressing NDM-1 (CLB30005, CLB30016); format: cell-based; settings: with imipenem 1 μg/ml; 95% inhibition of bacterial growth
Summary of the method: as §3

[5] = tested on: Klebsiella pneumoniae expressing VIM-1 (IHMA599644); format: cell-based; settings: with imipenem 1 μg/ml; 95% inhibition of bacterial growth
Summary of the method: as §3

NDM-1, sequence (C7C422 whole entry, looked up, species assumed): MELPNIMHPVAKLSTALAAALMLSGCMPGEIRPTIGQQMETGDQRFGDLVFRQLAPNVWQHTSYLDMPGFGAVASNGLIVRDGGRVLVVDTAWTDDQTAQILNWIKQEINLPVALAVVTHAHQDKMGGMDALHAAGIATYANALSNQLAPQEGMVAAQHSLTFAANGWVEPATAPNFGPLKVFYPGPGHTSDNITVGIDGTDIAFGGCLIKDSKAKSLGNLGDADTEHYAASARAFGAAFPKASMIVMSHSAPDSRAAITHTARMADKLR

C[C@H](N)CS(=O)(=O)c1ccc(-c2cccc3sc(N)nc23)c(-c2nn[nH]n2)c1S(N)(=O)=O [Example 93, 3-(2-aminobenzo[d]thiazol-4-yl)-6-((S)-2-aminopropylsulfonyl)-2-(2H-tetrazol-5-yl)benzenesulfonamide]
IC50 (NDM-1): 0.0732 nM
IC50 (IMP-1): 0.13 nM
IC50 (VIM-1): 0.13 nM
P. aeruginosa expressing IMP-1, efflux+ (MB9798) MITC95 [1]: 0.7813 µM
Efflux ratio [1]: 1.00
P. aeruginosa expressing IMP-1, efflux− (MB9799) MITC95 [2]: 0.7813 µM
Serratia marcescens expressing IMP-1 (CL5741) MITC95 [3]: 0.7813 µM
Escherichia coli expressing NDM-1 (CLB30016) MITC95 [4]: 1.172 µM
Klebsiella pneumoniae expressing VIM-1 (IHMA599644) MITC95 [5]: 3.125 µM

CC(C)(N)CS(=O)(=O)c1ccc(-c2cccc3sc(N)nc23)c(-c2nn[nH]n2)c1S(N)(=O)=O [Example 94, 6-(2-amino-2-methylpropylsulfonyl)-3-(2-aminobenzo[d]thiazol-4-yl)-2-(2H-tetrazol-5-yl)benzenesulfonamide]
IC50 (NDM-1): 0.206 nM
IC50 (IMP-1): 0.504 nM
IC50 (VIM-1): 0.222 nM
P. aeruginosa expressing IMP-1, efflux+ (MB9798) MITC95 [1]: 3.125 µM
Efflux ratio [1]: 2.00
P. aeruginosa expressing IMP-1, efflux− (MB9799) MITC95 [2]: 1.563 µM
Serratia marcescens expressing IMP-1 (CL5741) MITC95 [3]: 1.563 µM
Escherichia coli expressing NDM-1 (CLB30016) MITC95 [4]: 0.7813 µM
Klebsiella pneumoniae expressing VIM-1 (IHMA599644) MITC95 [5]: 3.125 µM

Nc1nc2c(-c3ccc(S(=O)(=O)CC4(N)CC4)c(S(N)(=O)=O)c3-c3nn[nH]n3)cccc2s1 [Example 95, 3-(2-aminobenzo[d]thiazol-4-yl)-6-((1-aminocyclopropyl)methylsulfonyl)-2-(2H-tetrazol-5-yl)benzenesulfonamide]
IC50 (NDM-1): 0.138 nM
IC50 (IMP-1): 0.221 nM
IC50 (VIM-1): 0.293 nM
P. aeruginosa expressing IMP-1, efflux+ (MB9798) MITC95 [1]: 3.125 µM
Efflux ratio [1]: 2.00
P. aeruginosa expressing IMP-1, efflux− (MB9799) MITC95 [2]: 1.563 µM
Serratia marcescens expressing IMP-1 (CL5741) MITC95 [3]: 1.563 µM
Escherichia coli expressing NDM-1 (CLB30016) MITC95 [4]: 1.563 µM
Klebsiella pneumoniae expressing VIM-1 (IHMA599644) MITC95 [5]: 6.25 µM

Nc1nc2c(-c3ccc(S(=O)(=O)CC(N)CO)c(S(N)(=O)=O)c3-c3nn[nH]n3)cccc2s1 (centres unmarked) [Example 96, 6-(2-amino-3-hydroxypropylsulfonyl)-3-(2-aminobenzo[d]thiazol-4-yl)-2-(2H-tetrazol-5-yl)benzenesulfonamide]
IC50 (NDM-1): 0.122 nM
IC50 (IMP-1): 0.265 nM
IC50 (VIM-1): 0.185 nM
P. aeruginosa expressing IMP-1, efflux+ (MB9798) MITC95 [1]: 0.7813 µM
Efflux ratio [1]: 0.50
P. aeruginosa expressing IMP-1, efflux− (MB9799) MITC95 [2]: 1.563 µM
Serratia marcescens expressing IMP-1 (CL5741) MITC95 [3]: 1.563 µM
Escherichia coli expressing NDM-1 (CLB30016) MITC95 [4]: 1.563 µM
Klebsiella pneumoniae expressing VIM-1 (IHMA599644) MITC95 [5]: 3.125 µM

NCC(O)CS(=O)(=O)c1ccc(-c2cccc3sc(N)nc23)c(-c2nn[nH]n2)c1S(N)(=O)=O (centres unmarked) [Example 97, 6-(3-amino-2-hydroxypropylsulfonyl)-3-(2-aminobenzo[d]thiazol-4-yl)-2-(2H-tetrazol-5-yl)benzenesulfonamide]
IC50 (NDM-1): 0.0645 nM
IC50 (IMP-1): 0.171 nM
IC50 (VIM-1): 0.249 nM
P. aeruginosa expressing IMP-1, efflux+ (MB9798) MITC95 [1]: 0.3906 µM
P. aeruginosa expressing IMP-1, efflux− (MB9799) MITC95 [2]: 0.7813 µM
Serratia marcescens expressing IMP-1 (CL5741) MITC95 [3]: 1.563 µM
Escherichia coli expressing NDM-1 (CLB30016) MITC95 [4]: 0.7813 µM
Klebsiella pneumoniae expressing VIM-1 (IHMA599644) MITC95 [5]: 1.563 µM

NS(=O)(=O)c1c(S(=O)(=O)C2CNC2)ccc(-c2cnc3ccccc3c2)c1-c1nnn[nH]1.O=C(O)C(F)(F)F [Example 98, 3-((4-(quinolin-3-yl)-2-sulfamoyl-3-(1H-tetrazol-5-yl)phenyl)sulfonyl)azetidin-1-ium 2,2,2-trifluoroacetate]
IC50 (NDM-1): 0.4 nM
IC50 (IMP-1): 1.97 nM
IC50 (VIM-1): 0.241 nM
P. aeruginosa expressing IMP-1, efflux+ (MB9798) MITC95 [1]: 25 µM
Efflux ratio [1]: 15.99
P. aeruginosa expressing IMP-1, efflux− (MB9799) MITC95 [2]: 1.563 µM
Serratia marcescens expressing IMP-1 (CL5741) MITC95 [3]: 3.125 µM
Escherichia coli expressing NDM-1 (CLB30016) MITC95 [4]: 3.125 µM
Klebsiella pneumoniae expressing VIM-1 (IHMA599644) MITC95 [5]: 3.125 µM

Cc1cc(-c2ccc(S(=O)(=O)C3CNC3)c(S(N)(=O)=O)c2-c2nnn[nH]2)cnc1C#N.O=C(O)C(F)(F)F [Example 99, 3-((4-(6-cyano-5-methylpyridin-3-yl)-2-sulfamoyl-3-(1H-tetrazol-5-yl)phenyl)sulfonyl)azetidin-1-ium 2,2,2-trifluoroacetate]
IC50 (NDM-1): 3.94 nM
IC50 (IMP-1): 13.7 nM
IC50 (VIM-1): 0.535 nM
P. aeruginosa expressing IMP-1, efflux+ (MB9798) MITC95 [1]: 200 µM
Efflux ratio [1]: 127.96
P. aeruginosa expressing IMP-1, efflux− (MB9799) MITC95 [2]: 1.563 µM
Serratia marcescens expressing IMP-1 (CL5741) MITC95 [3]: 12.5 µM
Escherichia coli expressing NDM-1 (CLB30016) MITC95 [4]: 6.25 µM
Klebsiella pneumoniae expressing VIM-1 (IHMA599644) MITC95 [5]: 6.25 µM
